Measurements from ChEMBL document CHEMBL1201862, “PubChem BioAssay data set” (2004).
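Interpolation was linear, between the two tested concentrations surrounding the appropriate level; five concentrations were tested over 48 hours in 96-well plates. Abbreviation: GI50, concentration required for 50% inhibition of growth.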 Active and inactive are the calls of the source. Rule as the data show it: active = GI50 up to about 1.1 µM and inactive = higher.

How the values were obtained:
Assay in all cases: growth of human tumour cells (NCI), 48 h
786-0 = tested on: 786-0
A498 = tested on: A498
A549 = tested on: A549
ACHN = tested on: ACHN
BT-549 = tested on: BT-549
CAKI-1 = tested on: CAKI-1
COLO 205 = tested on: COLO 205
DU-145 = tested on: DU-145
EKVX = tested on: EKVX
HCT-116 = tested on: HCT-116
HCT-15 = tested on: HCT-15
HOP-62 = tested on: HOP-62
HOP-92 = tested on: HOP-92
HT-29 = tested on: HT-29
Hs-578T = tested on: Hs-578T
IGROV-1 = tested on: IGROV-1
K562 = tested on: K562
KM12 = tested on: KM12
LOX IMVI = tested on: LOX IMVI
M14 = tested on: M14
MCF7 = tested on: MCF7
MDA-MB-231 = tested on: MDA-MB-231
MDA-MB-435 = tested on: MDA-MB-435
MDA-N = tested on: MDA-N
MOLT-4 = tested on: MOLT-4
Malme-3M = tested on: Malme-3M
NCI-H226 = tested on: NCI-H226
NCI-H23 = tested on: NCI-H23
NCI-H522 = tested on: NCI-H522
NCI/ADR-RES = tested on: NCI/ADR-RES
OVCAR-3 = tested on: OVCAR-3
OVCAR-4 = tested on: OVCAR-4
OVCAR-5 = tested on: OVCAR-5
OVCAR-8 = tested on: OVCAR-8
PC-3 = tested on: PC-3
RPMI-8226 = tested on: RPMI-8226
RXF 393 = tested on: RXF 393
SF-268 = tested on: SF-268
SF-295 = tested on: SF-295
SK-MEL-28 = tested on: SK-MEL-28
SK-MEL-2 = tested on: SK-MEL-2
SK-MEL-5 = tested on: SK-MEL-5
SK-OV-3 = tested on: SK-OV-3
SN12C = tested on: SN12C
SNB-19 = tested on: SNB-19
SNB-75 = tested on: SNB-75
SR = tested on: SR
T47D = tested on: T47D
TK-10 = tested on: TK-10
U-251 = tested on: U-251
UACC-257 = tested on: UACC-257
UACC-62 = tested on: UACC-62
UO-31 = tested on: UO-31

Q: Which results are given for `CC(=O)OC1CCC2(C)C(=CC(C3C=C4CC(OC(C)=O)CCC4(C)C4=C3C3CC5OC6(CCC(C)CO6)C(C)C5C3(C)CC4)C3=C2CCC2(C)C3CC3OC4(CCC(C)CO4)C(C)C32)C1` (stereo not drawn)?
A: GI50 (786-0): 16.1 µM (inactive); GI50 (A498): 17.1 µM (inactive); GI50 (A549): 13.7 µM (inactive); GI50 (ACHN): 15.8 µM (inactive); GI50 (BT-549): 15.6 µM (inactive); GI50 (CAKI-1): 18.2 µM (inactive); GI50 (COLO 205): 17.6 µM (inactive); GI50 (DU-145): 14.2 µM (inactive); GI50 (EKVX): 17.9 µM (inactive); GI50 (HCT-116): 15.1 µM (inactive); GI50 (HCT-15): 14.3 µM; GI50 (HOP-62): 15.5 µM (inactive); GI50 (HOP-92): 14.1 µM (inactive); GI50 (HT-29): 14 µM (inactive); GI50 (Hs-578T): 2.61 µM (inactive); GI50 (IGROV-1): 11.5 µM (inactive); GI50 (K562): 4.43 µM (inactive); GI50 (KM12): 18.2 µM (inactive); GI50 (LOX IMVI): 16.5 µM (inactive); GI50 (M14): 14 µM (inactive); GI50 (MCF7): 10.3 µM (inactive); GI50 (MDA-MB-231): 16.3 µM (inactive); GI50 (MDA-MB-435): 14.1 µM (inactive); GI50 (MDA-N): 17.2 µM (inactive); GI50 (MOLT-4): 2.07 µM (inactive); GI50 (Malme-3M): 13.6 µM (inactive); GI50 (NCI-H226): 23 µM (inactive); GI50 (NCI-H23): 14.7 µM (inactive); GI50 (NCI-H522): 6.17 µM (inactive); GI50 (NCI/ADR-RES): 17.2 µM (inactive); GI50 (OVCAR-3): 15.1 µM (inactive); GI50 (OVCAR-4): 14 µM (inactive); GI50 (OVCAR-5): 17.7 µM (inactive); GI50 (OVCAR-8): 11.1 µM (inactive); GI50 (PC-3): 12.9 µM (inactive); GI50 (RPMI-8226): 4.98 µM (inactive); GI50 (RXF 393): 16.1 µM (inactive); GI50 (SF-268): 11.4 µM (inactive); GI50 (SF-295): 13.2 µM (inactive); GI50 (SK-MEL-28): 17.7 µM (inactive); GI50 (SK-MEL-2): 16.5 µM (inactive); GI50 (SK-MEL-5): 13 µM (inactive); GI50 (SK-OV-3): 16.3 µM (inactive); GI50 (SN12C): 17.6 µM (inactive); GI50 (SNB-19): 16.7 µM (inactive); GI50 (SNB-75): 16.3 µM (inactive); GI50 (SR): 11.9 µM (inactive); GI50 (T47D): 15.5 µM (inactive); GI50 (TK-10): 14.5 µM (inactive); GI50 (U-251): 14.7 µM (inactive); GI50 (UACC-257): 10.2 µM (inactive); GI50 (UACC-62): 13.4 µM (inactive); GI50 (UO-31): 15.5 µM (inactive)
